Values of other authors in patent US9877930B2, “Topical ubiquinol oral supplement compositions with amorphous calcium phosphate” (Premier Dental Products Company, priority 2012, dated 2018).

Legend:
adult periodontitis = conditions: topical once weekly via syringe for six weeks, with mechanical debridement; sites that bled at day 0
[1] = 150 mg per day in a softgel, orally, within 28 days
[2] = not given; remark: listed apart in the source
periodontal disease = conditions: 150 mg capsule/day for two months
[3] = test system: human monocytic celline THP-1; conditions: LPS-stimulated THP-1

Row | SMILES | bleeding on probing at treated sites (adult periodontitis) | peak blood values [1] [µg/mL] | water solubility | time required to reach peak concentration ([2]; absorption from the gastrointestinal tract) | time to steady-state concentrations ([2]; oral treatment) | effect on oral environment for periodontal disease (periodontal disease) | effect on inflammatory cytokines and chemokines in vitro [3]
1 | COC1=C(OC)C(=O)C(C/C=C(\C)CC/C=C(\C)CC/C=C(\C)CC/C=C(\C)CC/C=C(\C)CC/C=C(\C)CC/C=C(\C)CC/C=C(\C)CC/C=C(\C)CCC=C(C)C)=C(C)C1=O [CoQ10, ubiquinone] | no bleeding at six weeks | – | – | – | – | – | –
2 | COc1c(O)c(C)c(C/C=C(\C)CC/C=C(\C)CC/C=C(\C)CC/C=C(\C)CC/C=C(\C)CC/C=C(\C)CC/C=C(\C)CC/C=C(\C)CC/C=C(\C)CCC=C(C)C)c(O)c1OC [UBIQUINOL] | – | 3.84 | less than 0.1 mg/ml | approximately 6 hours | within two weeks | effective in improving oral environment for periodontal disease | anti-inflammatory effects
